In patent publication US12600732B2, “Bifunctional compounds for degrading BTK via ubiquitin proteosome pathway” (NURIX THERAPEUTICS, INC., priority 2019, dated 2026):
Where two headings read alike, the source gives them in different places.

What was measured:
[1] = test system: B cell receptor (BCR) signaling; assay: B cell activation assay (flow cytometry), mouse B cells; format: cell-based; settings: treatment 4 h, IgM stimulation 18 h
Procedure: (§1) Compound was present throughout the stimulation. Cells were stained with Live/Dead dye (Fisher L34976) and then fluorophore-conjugated antibodies against CD20 (Biolegend 302330), CD3 (BD Pharmingen 557705), CD86 (Biolegend 305416) and CD69 (Biolegend 310906). Stained cells were fixed in PFA and run on an Attune N×T Acoustic Focusing Flow Cytometer (Thermo-Fisher A29004), and data was analyzed using FlowJo (v10.5.3) and GraphPad Prism (v7.00) software. Single live lymphocytes were gated for B cells (CD20+CD3−) and T cells (CD3+CD20−), and the geometric mean fluorescence intensity (MFI) of CD86 and CD69 was calculated for each population. The MFI of the unstimulated sample was used to quantify baseline activation.
(§2) This example evaluates whether CTM treatment affects B cell receptor (BCR) signaling. BTK is activated downstream of the B cell receptor and leads to upregulation of activation markers CD86 and CD69 on the surface of B cells.

[2] = test system: B cell receptor (BCR) signaling; assay: B cell activation assay (flow cytometry), human B cells; format: cell-based; settings: treatment 4 h, IgM stimulation 18 h
Procedure: as §1, §2

[3] = test system: Mino cells; assay: Cell viability assay (CellTiter-Glo), Mino cells; format: cell-based; settings: Mino cells, treatment time 72 h
Description: (§3) This example evaluates effects of CTM-mediated degradation on cell viability. […] Mino and Rec-1 are models of Mantle Cell Lymphoma, which is sensitive to IMiDs.

[4] = test system: Rec-1 cells; assay: Cell viability assay (CellTiter-Glo), Rec-1 cells; format: cell-based
Description: as §3

[5] = test system: TMD8 cells; assay: Cell viability assay (CellTiter-Glo), TMD8 cells; settings: for EC50: Homo sapiens, TMD8, 72 h; for EMAX (% viable cells): TMD8 cells, treatment time 72 h
[6] = test system: TMD8 C481S cells; assay: Cell viability assay (CellTiter-Glo), TMD8 C481S cells; settings: for EC50: Homo sapiens, TMD8, 72 h; for EMAX (% viable cells): TMD8 C481S cells, treatment time 72 h
[7] = target: T1, BTK (Mus musculus, UniProt P35991); assay: In vivo degradation of BTK in mouse PD experiments with oral dosing; settings: 24 h, flow cytometry
T1 construct: from tissue; host or cells: mouse blood B cells / splenocytes (CD-1 or BALB/c)
Procedure, shortened: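 CD-1 or BALB/c mice dosed by oral gavage, screens at 90 mg/kg for 6 h, later at lower doses/longer times. Blood or splenocyte BTK measured by intracellular flow cytometry (or HTRF); % degradation from B-cell minus T-cell BTK geometric MFI, relative to vehicle.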

[8] = target: BTK (Homo sapiens, UniProt Q06187); assay: Cellular BTK degradation assay (Total BTK HTRF) in TMD8 cells; format: cell-based; design: endogenous in cells; host or cells: TMD8
Procedure: Cellular BTK Degradation Assay
In Vitro Cellular Screening to Determine Potency as Measured by DC50 Values after Four Hour Incubation
(§4) BTK levels were determined using Cisbio Total-BTK HTRF (Homologous Time-Resolved Fluorescence) kit (63ADK064PEG) according to the manufacturer's protocol. Briefly, cells were incubated in 1× supplied lysis buffer for 30 minutes. In an opaque white low volume 96-well plate (Cisbio, 66PL96005), cell lysate was combined with two different specific BTK antibodies, one conjugated with Eu^3+-Cryptate FRET donor and one conjugated with d2 FRET acceptor. Assay controls include wells containing cell lysate with only the Eu^3+-Cryptate FRET donor antibody and wells containing both HTRF antibodies and lysis buffer without cells or control lysate provided by Cisbio. HTRF ratio was calculated as (acceptor signal at 665 nm/donor signal at 620 nm)×10^4. Background HTRF levels were determined from the control well containing the donor, but no acceptor, antibody. Background HTRF levels were subtracted from all samples. Readouts were reported as HTRF levels relative to HTRF levels of DMSO-treated cells. Four-parameter non-linear regressions were performed in GraphPad Prism 7.02 to obtain DC50 values.
Cellular BTK degradation was measured as above for four hours in TMD8 cells for two diastereomers of compound 130. DC50 and EC50 values are the concentration at which the response is halfway between the top and bottom of the fitted non-linear regression curve.
The present example evaluates whether potency of BTK CTMs shifts with longer timepoints. DC50 values are typically calculated with a 4-hour timepoint.

[9] = target: BTK C481S (Homo sapiens, UniProt Q06187, C481S); assay: BTK degradation (Total BTK HTRF) in TMD8 cells expressing BTK-C481S; format: cell-based; design: endogenous in cells; host or cells: TMD8 BTK-C481S (clone2C3), Cas9 RNP knock-in; settings: TMD8 BTK-C481S (clone2C3) cells, treatment time 4 h
Procedure: as §4
BTK Degradation (Total BTK HTRF) at Four Hours in TMD8 Cells Expressing BTK-C481S
This example evaluates the potency of CTM in degrading […]. The BTK binding moieties utilized in CTMs bind to the BTK active site. This example evaluates whether the active site mutation C481S affects CTM-induced degradation of BTK.

[10] = test system: TMD8 cells; settings: human, 72 h
[11] = test system: TMD8 C481S cells; settings: human, 72 h
[12] = oral dose 10 mg/kg, splenocytes

CC#CC(=O)N1CCC[C@H]1c1nc(-c2ccc(C(=O)Nc3ccccn3)cc2)c2c(N)nccn12 [Acalabrutinib, acalabrutinib, reference compound]
EC50 ([1]; read-out: CD69 EC50): 1 nM | EC50 ([1]; read-out: CD86 EC50): 3 nM | EC50 ([2]; read-out: CD69 EC50): 2 nM | EC50 ([2]; read-out: CD86 EC50): 3 nM | EC50 ([3]; Homo sapiens): 1240 nM | EMAX (% viable cells) [3]: 84% | EC50 ([4]; Homo sapiens, Rec1, treatment time 72 h): 582 nM | EMAX (% viable cells) ([4]; treatment time 72 h): 76% | EC50 [5]: 12 nM | EMAX (% viable cells) [5]: 35% | EC50 [6]: > 2000 nM | EMAX (% viable cells) [6]: 96%

NC(=O)c1ncc(-c2nccs2)nc1Nc1ccc(C2CCN(C[C@@H]3CCN(c4ccc5c(c4)C(=O)N(C4CCC(=O)NC4=O)C5=O)C3)CC2)cc1 (stereo partly shown) [Compound 148]
% BTK Remaining ([7]; oral dose 30 mg/kg, blood): 24% | DC50 ([8]; treatment time 24 h): 0.68 nM | EC50 [5]: 3.27 nM | EMAX (% viable cells) [5]: 2% | EC50 [6]: 9.18 nM | EMAX (% viable cells) [6]: 4% | DC50 [9]: 9.7 nM

CN1CCN([C@@H]2CCCN(c3cnc(C(N)=O)c(Nc4ccc(C5CCN(CC6CCN(c7ccc(C(=O)N[C@H]8CCC(=O)NC8=O)nc7)CC6)CC5)cc4)n3)C2)C1=O [Compound 195]
% BTK Remaining ([7]; oral dose 3 mg/kg, blood): 40% | % BTK Remaining ([7]; oral dose 3 mg/kg, splenocytes): 39% | % BTK Remaining ([7]; oral dose 10 mg/kg, blood): 25% | % BTK Remaining [7, 12]: 23% | DC50 ([8]; treatment time 4 h): 0.26 nM

CN1CCN([C@@H]2CCCN(c3cnc(C(N)=O)c(Nc4ccc(C5CCN(CC6CCN(c7ccc(C(=O)N[C@@H]8CCC(=O)NC8=O)nc7)CC6)CC5)cc4)n3)C2)C1=O [Compound 194]
% BTK Remaining ([7]; oral dose 3 mg/kg, blood): 90% | % BTK Remaining ([7]; oral dose 3 mg/kg, splenocytes): 95% | % BTK Remaining ([7]; oral dose 10 mg/kg, blood): 63% | % BTK Remaining [7, 12]: 57% | DC50 ([8]; treatment time 4 h): 4.3 nM

NC(=O)c1ncc(-c2nccs2)nc1Nc1ccc(N2CCC3(CCN(Cc4ccc5c(c4)C(=O)N(C4CCC(=O)NC4=O)C5=O)CC3)CC2)cc1 (stereo not shown) [Compound 150]
% BTK Remaining ([7]; oral dose 30 mg/kg, blood): 25% | DC50 ([8]; treatment time 24 h): 4.7 nM

NC(=O)[C@H]1CCN(c2ncnc(N)c2F)C[C@@H]1N1CCC[C@@H](Nc2cc(Cl)cc(C(F)(F)F)c2)C1=O [Vecabrutinib]
EMAX (% viable cells) [10]: 38% | EMAX (% viable cells) [11]: 51% | EC50 [5]: 256 nM | EC50 [6]: 530 nM

CN1CCN([C@@H]2CCCN(c3cnc(C(N)=O)c(Nc4ccc(C5(C)CCN(CCCCc6cccc7c6CN(C6CCC(=O)NC6=O)C7=O)CC5)cc4)n3)C2)C1=O (stereo partly shown) [Compound 21]
EMAX (% viable cells) [10]: 19% | EC50 [5]: 1.6 nM
